For three molecules, IC50, inhibition in vivo and Emax results are on record in patent US6417212B1, “Modulators of peroxisome proliferator activated receptors” (Eli Lilly & Company, priority 1999, dated 2002).

In test [1] the target is T1, huPPARγ (Homo sapiens, UniProt P37231).
T1 sequence (P37231 1-505): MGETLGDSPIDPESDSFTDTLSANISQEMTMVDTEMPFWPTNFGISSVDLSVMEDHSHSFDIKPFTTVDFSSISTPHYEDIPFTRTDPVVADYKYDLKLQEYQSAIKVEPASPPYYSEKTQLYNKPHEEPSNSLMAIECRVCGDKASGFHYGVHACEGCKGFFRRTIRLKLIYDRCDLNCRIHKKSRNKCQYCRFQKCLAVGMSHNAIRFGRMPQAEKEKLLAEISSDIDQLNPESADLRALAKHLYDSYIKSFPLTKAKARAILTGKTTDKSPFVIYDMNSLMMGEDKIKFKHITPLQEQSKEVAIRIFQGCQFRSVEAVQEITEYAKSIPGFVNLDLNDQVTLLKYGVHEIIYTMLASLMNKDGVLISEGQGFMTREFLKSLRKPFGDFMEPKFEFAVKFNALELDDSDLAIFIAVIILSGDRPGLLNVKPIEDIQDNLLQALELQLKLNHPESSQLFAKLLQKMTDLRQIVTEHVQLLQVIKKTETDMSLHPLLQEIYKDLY
T1 sequence (P19793 1-462 partner): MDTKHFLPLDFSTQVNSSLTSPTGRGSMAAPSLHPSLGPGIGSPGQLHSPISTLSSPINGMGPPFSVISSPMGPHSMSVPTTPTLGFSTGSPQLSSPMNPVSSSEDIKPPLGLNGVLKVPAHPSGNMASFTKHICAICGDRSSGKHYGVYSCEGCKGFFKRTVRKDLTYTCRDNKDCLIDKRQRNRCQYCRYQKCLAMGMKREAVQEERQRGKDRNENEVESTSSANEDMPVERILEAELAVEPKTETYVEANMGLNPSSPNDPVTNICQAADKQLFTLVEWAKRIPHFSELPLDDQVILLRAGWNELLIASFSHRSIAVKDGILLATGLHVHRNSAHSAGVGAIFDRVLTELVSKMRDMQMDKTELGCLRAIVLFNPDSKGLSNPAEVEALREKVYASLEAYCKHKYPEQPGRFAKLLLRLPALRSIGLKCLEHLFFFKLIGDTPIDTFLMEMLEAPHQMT
Nature of the test: DNA-dependent binding (ABCD binding), SPA, huPPARγ. The settings on record: displacement of tritium-labeled PPARγ agonist radioligand. The method, then: (§1) DNA-dependent binding (ABCD binding) was carried out using SPA technology with PPAR receptors. Tritium-labeled PPARγ and PPARα agonists were used as radioligands for generating displacement curves and IC50 values with compounds of the invention. Cotransfection assays were carried out in CV-1 cells. The reporter plasmid contained an acylCoA oxidase (AOX) PPRE and TK promoter upstream of the luciferase reporter cDNA. Appropriate PPARs and RXRα were constitutively expressed using plasmids containing the CMV promoter. […] In order to eliminate such interference, a GAL4 chimeric system was used in which the DNA binding domain of the transfected PPAR was replaced by that of GAL4, and the GAL4 response element was utilized in place of the AOX PPRE. Cotransfection efficacy was determined relative to PPARα agonist and PPARβ agonist reference molecules. Efficacies were determined by computer fit to a concentration-response curve, or in some cases at a single high concentration of agonist (10 μM). For binding or cotransfection studies with receptors other than PPARs, similar assays were carried out using appropriate ligands, receptors, reporter constructs, etc., for that particular receptor.
(§2) These studies were carried out to evaluate the ability of compounds of the invention to bind to and/or activate various nuclear transcription factors, particularly huPPARα (“hu” indicates “human”) and huPPARγ. These studies provide in vitro data concerning efficacy and selectivity of compounds of the invention. Furthermore, binding and cotransfection data for compounds of the invention were compared with corresponding data for marketed compounds that act on either huPPARα or huPPARγ.

The subject of test [2] is db/db mice. Description: Evaluation of glucose levels in db/db mice. The format is in vivo. To be noted: Mus musculus, 168 h; 30 mg/kg daily oral gavage for 7 days; 100% = glucose not different from lean values; read-out: Glucose Normalisation. The method, then:
After an acclimation period of 2 weeks, animals were individually identified by ear notches, weighed, and bled via the tail vein for determination of initial glucose levels. Blood was collected (100 μl) from unfasted animals by wrapping each mouse in a towel, cutting the tip of the tail with a scalpel, and milking blood from the tail into a heparinized capillary tube (Fisher) balanced on the edge of the bench. Sample was discharged into a heparinized microtainer with gel separator (VWR) and retained on ice. Plasma was obtained after centrifugation at 4° C. and glucose measured immediately. Remaining plasma was frozen until the completion of the experiment, when glucose and triglycerides were assayed in all samples. Animals were grouped based on initial glucose levels and body weights. Beginning the following morning, mice were dosed daily by oral gavage for 7 days using a 20 gauge, 1½″ curved disposable feeding needle. […] On day 7, mice were weighed and bled (tail vein) 3 hours after dosing. Twenty-four hours after the 7th dose (i.e., day 8), animals were bled again (tail vein). Samples obtained from conscious animals on days 0, 7 and 8 were assayed for glucose. After the 24 hour bleed, animals were weighed and dosed for the final time. Three hours after dosing on day 8, animals were anesthetized by inhalation of isoflurane and blood obtained via cardiac puncture (0.5-0.7 ml). Whole blood was transferred to serum separator tubes, chilled on ice and permitted to clot. Serum was obtained after centrifugation at 4° C. and frozen until analysis for compound levels. After sacrifice by cervical dislocation, the liver, heart and epididymal fat pads were excised and weighed.
The absorbance of the dye produced is linearly related to the analyte in the sample. The assays were further modified in our laboratory for use in a 96 well format. […] An additional aliquot of sample, pipetted to a third well and diluted in 200 μl water, provided a blank for each specimen. […] Sample absorbances were compared to a standard curve (100-800, 10-500, and 100-400 mg/dl for glucose, triglycerides and total cholesterol, respectively). […] All samples from an experiment were assayed at the same time to minimize inter-assay variability.

Test [3] addresses T1, huPPARγ. Description: Cotransfection assay in CV-1 cells, huPPARγ. The format is cell-based. To be noted: AOX PPRE luciferase reporter, relative to agonist reference molecule, read-out: huPPARγ CTF Efficacy. Also on record: expressed in transfected cells; host or cells: CV-1 cells. The procedure: as §1, with “Tritium-labeled PPARγ and PPARα agonists were used as radioligands for generating displacement curves and IC50 values with compounds of the invention.” left out, “Cotransfection efficacy was determined relative to PPARα agonist and PPARβ agonist reference molecules.” left out
as §2
For orientation: In a reporter assay the amount or activity of a reporter protein is the signal.

`Cc1sc(-c2cccc(-c3ccccc3)c2)nc1CCOc1ccc(OC(C)(C)C(=O)O)cc1` [Example 46, 2-{4-[2-(2-Biphenyl-3-yl-5-methyl-thiazol-4-yl)-ethoxy]-phenoxy}-2-methyl-propionic acid]: the IC50 in test [1] came out at 268 nM. The inhibition in vivo at 30 mg/kg in test [2] was found to be 29%. In test [3], the Emax was determined as 142%.
`Cc1oc(-c2ccc(-c3ccccc3)cc2)nc1CCOc1cccc(OC(C)(C)C(=O)O)c1` [Example 21, 2-{3-[2-(2-Biphenyl-4-yl-5-methyloxazol-4-yl)ethoxy]phenoxy}-2-methylpropionic acid] showed a 50% inhibitory concentration (IC50) in test [1] of 532 nM. Besides, in test [2], the inhibition in vivo at 30 mg/kg is 95%. Also, the Emax in test [3] amounted to 70%.
With `Cc1oc(-c2ccc(-c3c(F)cccc3F)cc2)nc1CCOc1ccc(OC(C)(C)C(=O)O)cc1` [Example 14, 2-(4-{2-[2-(2′,6′-Difluorobiphenyl-4-yl)-5-methyloxazol-4-yl]-ethoxy}-phenoxy)-2-methylpropionic acid], the IC50 in test [1] was 457 nM. Moreover, the inhibition in vivo at 30 mg/kg in test [2] worked out at 134%. For the same molecule, in test [3], the Emax worked out at 84%.

Broadly, the IC50 is the concentration that inhibits the measured activity by half.
